According to US20160376240A1, “6 Phenyl or 6 Pyridin 3 YL Indazole Derivatives and Methods of Use” (ABBVIE INC., priority 2014, published 2016):

Molecular target: T1, TrkA (Homo sapiens, UniProt P04629)
T1 construct: purchased Invitrogen PV3144
Assay: TrkA kinase inhibition, HTRF assay
Type: biochemical
Conditions: LCK peptide substrate 125 nM, TrkA 2-10 nM pre-incubated with ATP 200 μM
Protocol: TrkA, TrkB, and TrkC enzymes were obtained from Invitrogen (as catalog numbers PV3144, PV3616, and PV3617, respectively). The ability of a compound to inhibit the enzymatic activity of the TrkA, TrkB, and TrkC enzymes was determined in separate assays. Enzyme activity was measured in an HTRF® (homogeneous time resolved fluorescence) assay, which detects enzymatic phosphorylation of a biotinylated synthetic peptide substrate (an LCK peptide analog, biotin-ahx-GAEEEIYAAFFA, from Genemed Synthesis). Phosphorylation is assessed by HTRF® in the presence of an anti-phosphotyrosine antibody conjugated to Eu^3+ cryptate (Cisbio) as donor fluorophore, and streptavidin conjugated to allophycocyanin (ProZyme) as acceptor fluorophore. The HTRF® signal was detected at two different wavelengths (620 nm and 665 nm) which were used to calculate the fluorescence ratio.
Each enzyme was titrated to a concentration optimized to ensure accurate measurement of the initial reaction rate. To allow the Trk enzymes to undergo activation and auto-phosphorylation, a 20 minute pre-incubation with ATP was carried out (at twice the final targeted enzyme and ATP concentration) prior to addition of test compound and the peptide substrate.
TrkA in vitro assays were performed by pre-incubating TrkA (2-10 nM) with ATP (200 μM) for 20 minutes at ambient temperature in 50 mM HEPES pH 7.4, 10 mM MgCl2, 2 mM MnCl2, 100 μM Na3VO4, 1 mM dithiothreitol, 0.01% BSA (bovine serum albumin). Then, to the activated Trk enzyme mixture was added the test compound in 2% dimethyl sulfoxide. After 10 minutes, the peptide substrate (125 nM) was added. After 1 hour, enzyme reactions were terminated by addition of equal reaction volumes of detection/stop reagent (containing 0.2 μg/mL anti-phosphotyrosine monoclonal antibody labeled with europium from Cisbio (catalog# PT66-K), and 4 μg/mL PhycoLink® Streptavidin-Allophycocyanin conjugate from ProZyme (catalog# PJ25S) in 60 mM EDTA in 40 mM HEPES pH 7.4, 480 mM KF, 0.01% Tween® 20 and 0.1% BSA bovine serum albumin) Reaction plates were stored at 4° C. overnight before reading the fluorescence ratio signal on a PerkinElmer EnVision™ fluorescence detector. Individual reaction wells were stopped at time points to obtain reaction rates. The test inhibitor compounds were assayed in duplicate, at half-log serial dilutions over a range of concentrations (e.g. starting at 50 μM or 5 μM as the high compound concentration). The percent Trk enzyme inhibition was calculated from the initial rates of the inhibited reactions relative to the uninhibited control. IC50 values were calculated by fitting the inhibition percent to the concentration of inhibitor [I] in the assay in equation 1 below, to solve for the IC50.
Inhibition %=100[I]/([I]+[IC50]) equation 1

T1 sequence (P04629 33-796): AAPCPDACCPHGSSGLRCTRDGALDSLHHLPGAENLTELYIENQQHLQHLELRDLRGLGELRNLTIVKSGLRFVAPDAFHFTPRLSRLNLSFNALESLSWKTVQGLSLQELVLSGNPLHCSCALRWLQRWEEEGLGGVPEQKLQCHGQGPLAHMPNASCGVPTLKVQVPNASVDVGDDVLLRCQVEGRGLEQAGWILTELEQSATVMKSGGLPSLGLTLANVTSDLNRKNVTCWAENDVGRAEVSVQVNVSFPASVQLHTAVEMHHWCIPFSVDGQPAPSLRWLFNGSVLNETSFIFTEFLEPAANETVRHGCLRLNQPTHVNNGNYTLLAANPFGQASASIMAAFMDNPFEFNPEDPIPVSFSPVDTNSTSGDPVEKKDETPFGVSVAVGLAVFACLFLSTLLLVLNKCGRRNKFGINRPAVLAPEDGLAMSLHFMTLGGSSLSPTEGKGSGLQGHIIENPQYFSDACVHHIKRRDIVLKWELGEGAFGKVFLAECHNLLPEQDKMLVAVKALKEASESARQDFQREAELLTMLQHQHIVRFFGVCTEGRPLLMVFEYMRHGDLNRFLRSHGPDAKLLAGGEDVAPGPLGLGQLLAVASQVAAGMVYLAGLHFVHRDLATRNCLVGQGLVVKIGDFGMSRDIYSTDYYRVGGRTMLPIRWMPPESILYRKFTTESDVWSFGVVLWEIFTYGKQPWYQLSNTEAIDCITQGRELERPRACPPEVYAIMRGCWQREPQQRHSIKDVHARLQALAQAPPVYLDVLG

IC50	SMILES
25.3 nM	CNC(=O)c1ccc(-c2cc(O[C@@H](C)C(F)(F)F)c3c(N)n[nH]c3c2)cc1N1CCN(C2CCCC2)CC1 [Example 44, 4-(3-amino-4-{[(2S)-1,1,1-trifluoropropan-2-yl]oxy}-1H-indazol-6-yl)-2-(4-cyclopentylpiperazin-1-yl)-N-methylbenzamide]
37 nM	NC(=O)c1ccc(-c2cc(OC3CCOCC3)c3c(N)n[nH]c3c2)cc1N1CCN(CCN2CCOCC2)CC1 [Example 5, 4-[3-amino-4-(tetrahydro-2H-pyran-4-yloxy)-1H-indazol-6-yl]-2-{4-[2-(morpholin-4-yl)ethyl]piperazin-1-yl}benzamide]
12.7 nM	CCOC(=O)N1CCN(c2cc(-c3cc(OC4CCOCC4)c4c(C)n[nH]c4c3)ccc2C(=O)NC)CC1 [Example 134, ethyl 4-{2-(methylcarbamoyl)-5-[3-methyl-4-(tetrahydro-2H-pyran-4-yloxy)-1H-indazol-6-yl]phenyl}piperazine-1-carboxylate]
22 nM	CNC(=O)c1ccc(-c2cc(OC3CCOCC3)c3c(N)n[nH]c3c2)cc1N1CCN(CC(C)(F)F)CC1 [Example 172, 4-[3-amino-4-(tetrahydro-2H-pyran-4-yloxy)-1H-indazol-6-yl]-2-[4-(2,2-difluoropropyl)piperazin-1-yl]-N-methylbenzamide]
8.29 nM	CCCOC(=O)N1CCN(c2cc(-c3cc(OC4CCOCC4)c4c(C)n[nH]c4c3)ccc2C(=O)NC)CC1 [Example 135, propyl 4-{2-(methylcarbamoyl)-5-[3-methyl-4-(tetrahydro-2H-pyran-4-yloxy)-1H-indazol-6-yl]phenyl}piperazine-1-carboxylate]
4.43 nM	CC(=O)Nc1ccc(-c2cc(OC3CCOCC3)c3c(C)n[nH]c3c2)cc1N1CCN(C(=O)OC(C)C)CC1 [Example 146, isopropyl 4-{2-acetamido-5-[3-methyl-4-(tetrahydro-2H-pyran-4-yloxy)-1H-indazol-6-yl]phenyl}piperazine-1-carboxylate]
29.2 nM	CNC(=O)c1ccc(-c2cc(O[C@@H](C)C(F)(F)F)c3c(N)n[nH]c3c2)cc1N1CCN(c2cccnc2)CC1 [Example 41, 4-(3-amino-4-{[(2S)-1,1,1-trifluoropropan-2-yl]oxy}-1H-indazol-6-yl)-N-methyl-2-[4-(pyridin-3-yl)piperazin-1-yl]benzamide]
121 nM	CNC(=O)c1ccc(-c2cc(O[C@H](C)C(F)(F)F)c3c(N)n[nH]c3c2)cc1N1CCN(c2cnccn2)CC1 [Example 55, 4-(3-amino-4-{[(2R)-1,1,1-trifluoropropan-2-yl]oxy}-1H-indazol-6-yl)-N-methyl-2-[4-(pyrazin-2-yl)piperazin-1-yl]benzamide]
25.4 nM	CC(=O)Nc1ccc(-c2cc(OC3CCOCC3)c3c(C)n[nH]c3c2)cc1N1CCN(C(=O)C2CCC2)CC1 [Example 144, N-{2-[4-(cyclobutylcarbonyl)piperazin-1-yl]-4-[3-methyl-4-(tetrahydro-2H-pyran-4-yloxy)-1H-indazol-6-yl]phenyl}acetamide]
16.4 nM	CNC(=O)c1ccc(-c2cc(OC3CCOCC3)c3c(N)n[nH]c3c2)cc1N1CCN(CC2CC2(F)F)CC1 (centres unmarked) [Example 173, 4-[3-amino-4-(tetrahydro-2H-pyran-4-yloxy)-1H-indazol-6-yl]-2-{4-[(2,2-difluorocyclopropyl)methyl]piperazin-1-yl}-N-methylbenzamide]
13.4 nM	CC(=O)c1ccc(-c2cc(OC3CCOCC3)c3c(N)n[nH]c3c2)cc1N1CCN(c2ccc(F)cc2)CC1 [Example 17, 1-{4-[3-amino-4-(tetrahydro-2H-pyran-4-yloxy)-1H-indazol-6-yl]-2-[4-(4-fluorophenyl)piperazin-1-yl]phenyl}ethanone]
11.6 nM	CNC(=O)c1ccc(-c2cc(OC3CCOCC3)c3c(N)n[nH]c3c2)cc1N1CCN(CCC(F)(F)F)CC1 [Example 168, 4-[3-amino-4-(tetrahydro-2H-pyran-4-yloxy)-1H-indazol-6-yl]-N-methyl-2-[4-(3,3,3-trifluoropropyl)piperazin-1-yl]benzamide]
31.2 nM	CNC(=O)c1ccc(-c2cc(OC(C)C(F)(F)F)c3c(N)n[nH]c3c2)cc1N1CCN(c2cnccn2)CC1 (centres unmarked) [Example 38, 4-{3-amino-4-[(1,1,1-trifluoropropan-2-yl)oxy]-1H-indazol-6-yl}-N-methyl-2-[4-(pyrazin-2-yl)piperazin-1-yl]benzamide]
136 nM	NC(=O)c1ccc(-c2cc(OC3CCOCC3)c3c(N)n[nH]c3c2)cc1N1CCN(CCc2ccccn2)CC1 [Example 10, 4-[3-amino-4-(tetrahydro-2H-pyran-4-yloxy)-1H-indazol-6-yl]-2-{4-[2-(pyridin-2-yl)ethyl]piperazin-1-yl}benzamide]
20.1 nM	NC(=O)c1ccc(-c2cc(OC3CCCC3)c3c(N)n[nH]c3c2)cc1N1CCN(C2CC2)CC1 [Example 78, 4-[3-amino-4-(cyclopentyloxy)-1H-indazol-6-yl]-2-(4-cyclopropylpiperazin-1-yl)benzamide]
317 nM	CCc1n[nH]c2cc(-c3ccc(C(=O)NC)c(N4CCN(C(=O)OC(C)(C)C)CC4)c3)cc(OC3CCOCC3)c12 [Example 158, tert-butyl 4-{5-[3-ethyl-4-(tetrahydro-2H-pyran-4-yloxy)-1H-indazol-6-yl]-2-(methylcarbamoyl)phenyl}piperazine-1-carboxylate]
62.9 nM	CC(=O)c1ccc(-c2cc(OC3CCOCC3)c3c(N)n[nH]c3c2)cc1N1CCN(c2ccccc2)CC1 [Example 13, 1-{4-[3-amino-4-(tetrahydro-2H-pyran-4-yloxy)-1H-indazol-6-yl]-2-(4-phenylpiperazin-1-yl)phenyl}ethanone]
13500 nM	NC(=O)c1ccc(-c2ccc3c(N)n[nH]c3c2)cc1N1CCN(CCN2CCOCC2)CC1 [Example 89, 4-(3-amino-1H-indazol-6-yl)-2-{4-[2-(morpholin-4-yl)ethyl]piperazin-1-yl}benzamide]
227 nM	NC(=O)c1ccc(-c2ccc3c(N)n[nH]c3c2)cc1N1CCN(c2cccnc2)CC1 [Example 90, 4-(3-amino-1H-indazol-6-yl)-2-[4-(pyridin-3-yl)piperazin-1-yl]benzamide]
41.7 nM	CNC(=O)c1ccc(-c2cc(O[C@@H](C)C(F)(F)F)c3c(N)n[nH]c3c2)cc1N1CCN(c2ccccc2)CC1 [Example 39, 4-(3-amino-4-{[(2S)-1,1,1-trifluoropropan-2-yl]oxy}-1H-indazol-6-yl)-N-methyl-2-(4-phenylpiperazin-1-yl)benzamide]
34.1 nM	Cc1n[nH]c2cc(-c3ccc(C(N)=O)cc3)cc(OC3CCOCC3)c12 [Example 132, 4-[3-methyl-4-(tetrahydro-2H-pyran-4-yloxy)-1H-indazol-6-yl]benzamide]
214 nM	CNC(=O)c1ccc(-c2cc(OC3CCCC3)c3c(C)n[nH]c3c2)cc1N1CCN(C(=O)OCC(C)C)CC1 [Example 128, isobutyl 4-{5-[4-(cyclopentyloxy)-3-methyl-1H-indazol-6-yl]-2-(methylcarbamoyl)phenyl}piperazine-1-carboxylate]
422 nM	CNC(=O)c1ccc(-c2cc(O[C@@H](C)C(F)(F)F)c3c(N)n[nH]c3c2)cc1N1CCN(C2CCC2)CC1 [Example 42, 4-(3-amino-4-{[(2S)-1,1,1-trifluoropropan-2-yl]oxy}-1H-indazol-6-yl)-2-(4-cyclobutylpiperazin-1-yl)-N-methylbenzamide]
44 nM	NC(=O)c1ccc(-c2cc(OC3CCCC3)c3c(N)n[nH]c3c2)cc1N1CCN(CC(=O)N2CCCCC2)CC1 [Example 107, 4-[3-amino-4-(cyclopentyloxy)-1H-indazol-6-yl]-2-{4-[2-oxo-2-(piperidin-1-yl)ethyl]piperazin-1-yl}benzamide]
32.5 nM	CNC(=O)c1ccc(-c2cc(O[C@@H](C)C(F)(F)F)c3c(N)n[nH]c3c2)cc1N1CCN(c2cnccn2)CC1 [Example 46, 4-(3-amino-4-{[(2S)-1,1,1-trifluoropropan-2-yl]oxy}-1H-indazol-6-yl)-N-methyl-2-[4-(pyrazin-2-yl)piperazin-1-yl]benzamide]
57.3 nM	CNC(=O)c1ccc(-c2cc(OC3CCOCC3)c3c(C)n[nH]c3c2)cc1N1CCN(C(=O)OCC(C)(C)C)CC1 [Example 137, 2,2-dimethylpropyl 4-{2-(methylcarbamoyl)-5-[3-methyl-4-(tetrahydro-2H-pyran-4-yloxy)-1H-indazol-6-yl]phenyl}piperazine-1-carboxylate]
